# Test results from patent US12528837B2, “Aryl substituted polymyxin derivatives” (priority 2018, dated 2026).
# Read-outs that look alike come from different tables or passages of the source. Marks after values point to notes of the source that are not given here. *1 amine or outer side, *2 acyl side, *3 side chain or, on linkers, in order; H or OH if unused. Where a SMILES comes first, the peptide text is derived from it. Bridges are numbered along the chain shown (N, C = ends). [ ]: non-standard residue; d: D form. The star is where a group is joined. GABA(3R-Bn) = O=C(C[C@H](CN[*:1])Cc1ccccc1)[*:2]; X17 = CC(C)C[C@@H]1CNC[C@@H](C(=O)*)C1; X3 = CC(C)c1cccc([C@@H](CN)CC(=O)*)c1; X1 = NC[C@@H](CC(=O)*)c1cccc(Cl)c1; Dab = NCC[C@H](N)C(=O)O; Abu = CC[C@H](N)C(=O)O; Dap = NC[C@H](N)C(=O)O
# Assays:
# [1] = Renal toxicity in Cynomolgus monkey, iv infusion 7 days; format: in vivo; settings: Cynomolgus monkey (n=3), 20 mg/kg/dose, 3 times per day, 7 days
# Protocol: In a separate experiment male monkeys (n=3) were dosed with PMB for the same period at 4 mg/kg/dose. In both experiments control animals were dosed 3 times per day with saline.
# At the end of the 7 day period blood was sampled and the serum levels of blood urea nitrogen and creatinine determined as indicators of renal damage.
# Kidneys were harvested at the end of the 7 day dosing period and examined microscopically.
# A. baumannii NCTC 13424 = format: cell-based
# Protocol: (§1) The inoculum was prepared by making a direct suspension of isolated colonies (selected from an 18-24 hour Mueller-Hinton agar plate) adjusted to the 0.5 McFarland standard. […] The assays were performed in duplicate. […] The MIC values are quoted in μg/mL.
# P. aeruginosa ATCC 27853 [2] = format: cell-based; settings: ATCC 27853
# Protocol: as §1
# [3] = Renal toxicity in mice, 17.2 mg/kg sc three times per day, urinary biomarkers; format: in vivo, mouse
# Protocol: Starting immediately after the first dose on day 4, mice were transferred to individual metabolic cages and urine was collected over the following 24 hours for determination of biomarker levels (albumin, cystatin C, KIM-1).
# PMB values show the range from 4 experiments and colistin from 2 experiments.
# Elevation of albumin, cystatin C or KIM-1 in the urine are signs of renal damage.
# E. coli CDF-1 (MCR-1) = format: cell-based; settings: CDF-1 (MCR-1)
# Protocol: (§2) MIC values (μg/mL) were determined by broth microdilution under CLSI conditions.
# [4] = system: A. baumannii NCTC 13301 (OXA-23); format: cell-based; settings: NCTC 13301
# Protocol: as §2
# [5] = system: P. aeruginosa IHMA 517175; format: cell-based; settings: IHMA 517175
# Protocol: as §2
# [6] = system: A. baumannii IHMA 851735 (OXA-23); format: cell-based; settings: IHMA 851735 (OXA-23)
# Protocol: as §2
# [7] = system: K. pneumoniae IHMA 580884; format: cell-based; settings: IHMA 580884
# Protocol: as §2
# [8] = system: K. pneumoniae IHMA 520329 (SHV-12, KPC-2); format: cell-based; settings: IHMA 520329 (SHV-12, KPC-2)
# Protocol: as §2
# A. baumannii IHMA 517303 = format: cell-based; settings: IHMA 517303
# Protocol: as §2
# P. aeruginosa ATCC 27853 [9] = format: cell-based; settings: ATCC 27853; remark: listed apart in the source
# Protocol: as §2
# E. coli IHMA 940398 = format: cell-based; settings: IHMA 940398
# Protocol: as §2
# [10] = system: P. aeruginosa IHMA 644636; format: cell-based; settings: IHMA 644636
# Protocol: as §2
# [11] = Renal toxicity in mice, 25 mg/kg sc four doses at 8 hr intervals, biomarkers and histopathology; format: in vivo, mouse; settings: sc 25 mg free base/kg; for Kidney histopathology: signs of degeneration or regeneration: mice (n=6)
# Protocol: (§3) After the fourth dose animals were transferred into individual metabolic cages and urine collected for 24 hours for determination of urinary biomarkers. After collecting urine mice were euthanised and the kidneys harvested for histopathology.
# HK-2 cells = experiment: In vitro renal cell toxicity assay (HK-2); format: cell-based
# Outline: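 HK-2 cells seeded 7,500/well, adhered overnight, then exposed to compound for 24 h at 37° C, 5% CO2, with 5% water and 0.5% DMSO. Background-subtracted, vehicle-normalised dose-response fitted with bottom fixed at zero; IC50 reported relative to PMB in the same run, median where repeated.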
# P. aeruginosa CCUG 59347 = format: cell-based
# Outline: (§4)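 Inoculum was a direct suspension of isolated colonies from an 18-24 hour Mueller-Hinton agar plate, adjusted to the 0.5 McFarland standard. Assays ran in duplicate. MICs are in μg/mL; compounds tested more than once are reported as the median.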
# E. coli CA58 = format: cell-based
# Outline: as §4
# K. pneumoniae CA64 = format: cell-based
# Outline: as §4
# [12] = Kidney drug level after subcutaneous dose in mouse; format: in vivo; settings: for Drug Level in Kidney 4 h / Drug Level in Kidney 16 h / tissue level at time at 4 h: in vivo; for Drug Level in Kidney 4 h / Drug Level in Kidney 16 h: sc, 17.2 mg/kg; for 4 hr kidney level/rel. cytotoxicity: ratio of 4 h kidney level to HK-2 IC50 relative to PMB; for tissue level at time at 4 h: mice, 17.2 mg/kg free base sc, read-out: 4 hr kidney level
# Outline: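 Mice were euthanised four hours after subcutaneous dosing. Both kidneys were trimmed, weighed, snap-frozen, then homogenised with zirconium oxide beads. After centrifugation (13,000 rpm, 6 °C, 10 min), supernatants were analysed by LC-MS-MS.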
# K. pneumoniae ATCC 13822 = format: cell-based; settings: cation-adjusted Mueller-Hinton Broth, 18-20 h, 35° C.
# Protocol: as §1
# E. coli ATCC 25922 = format: cell-based; settings: cation-adjusted Mueller-Hinton Broth, 18-20 h, 35° C.
# Protocol: as §1
# [13] = system: A. baumannii ATCC BAA-747; format: cell-based; settings: cation-adjusted Mueller-Hinton Broth, 18-20 h, 35° C.
# Protocol: as §1
# [14] = Renal toxicity in mice, separate experiment Example 17 vs PMB; format: in vivo, mouse; settings: sc 25 mg free base/kg, four doses at 8 hr intervals
# Protocol: as §3
# In a separate experiment Example 17 was compared with PMB.
# [15] = Renal toxicity grading by urinary biomarkers (Table A); format: in vivo, mouse; design: key: −: indistinguishable to vehicle control; ++++: strong response from all biomarkers; settings: 4 doses 8 h apart at 25 mg free base/kg/dose or 4 days at 17.2 mg free base/kg/dose; urine 16-24 h
# [16] = IC50 relative to PMB in the same experiment, 24 h
# [17] = cation-adjusted Mueller-Hinton Broth, 18-20 h, 35° C.
# [18] = mice, sc three times per day 17.2 mg free base/kg, urine 24 h from day 4, geometric mean
compound,measurement,setting,value
"CC(C)C[C@@H]1NC(=O)[C@@H](Cc2ccccc2)NC(=O)[C@H](CCN)NC(=O)[C@@H](NC(=O)[C@H](CN)NC(=O)[C@@H](NC(=O)C[C@H](CN)c2cccc(Cl)c2)[C@@H](C)O)CCNC(=O)[C@H]([C@@H](C)O)NC(=O)[C@H](CCN)NC(=O)[C@H](CCN)NC1=O [Example 5, (S)-4-amino-3-(3- chlorophenyl)butanoyl- Thr-Dap-Cyclo[Dab- Dab-DPhe-Leu-Dab- Dab-Thr]] (X1-T[Dap][Dab][Dab][dF]L[Dab][Dab]T; lactam 3-C)",Kidney microscopy: tubular degeneration,[1],1 showed mild tubular degeneration and 2 showed minimal degeneration
same,MIC A. baumannii NCTC 13424,A. baumannii NCTC 13424; NCTC 13424,0.06 µg/mL
same,MIC P. aeruginosa ATCC 27853,P. aeruginosa ATCC 27853 [2],0.25 µg/mL
same,"Urinary biomarkers of renal toxicity, comparison (in words)","[3]; albumin, cystatin C, KIM-1, mice 17.2 mg free base/kg three times per day",lowest levels of all 3 biomarkers
same,MIC E. coli CDF-1,E. coli CDF-1 (MCR-1),8 µg/mL
same,MIC A. baumannii NCTC 13301,[4],0.06 µg/mL
same,MIC P. aeruginosa IHMA 517175,[5],8 µg/mL
same,MIC A. baumannii IHMA 851735,[6],0.25 µg/mL
same,MIC K. pneumoniae IHMA 580884,[7],16 µg/mL
same,MIC K. pneumoniae IHMA 520329,[8],>64 µg/mL
same,MIC A. baumannii IHMA 517303,A. baumannii IHMA 517303,>64 µg/mL
same,MIC P. aeruginosa ATCC 27853,P. aeruginosa ATCC 27853 [9],0.25 µg/mL
same,MIC E. coli IHMA 940398,E. coli IHMA 940398,32 µg/mL
same,MIC P. aeruginosa IHMA 644636,[10],32 µg/mL
same,Kidney histopathology: signs of degeneration or regeneration,[11],None of the animals
same,HK-2 rel to PMB,HK-2 cells,11.6
same,MIC P. aeruginosa CCUG 59347,P. aeruginosa CCUG 59347; CCUG 59347,0.25 µg/mL
same,MIC E. coli CA58,E. coli CA58; CA58,8 µg/mL
same,MIC K. pneumoniae CA64,K. pneumoniae CA64; CA64,16 µg/mL
same,"Drug Level in Kidney (μg/g kidney, 4 h)","[12]; mouse, 17.2 mg/kg sc",170 μg/g kidney
same,Drug Level in Kidney 4 h,[12]; mouse,170 µg/g kidney
same,Drug Level in Kidney 16 h,[12]; mouse,19 µg/g kidney
same,4 hr kidney level/rel. cytotoxicity,[12],15
"CC(C)C[C@@H]1NC(=O)[C@@H](Cc2ccccc2)NC(=O)[C@H](CCN)NC(=O)[C@@H](NC(=O)[C@H](CN)NC(=O)[C@@H](NC(=O)C[C@H](CN)Cc2ccccc2)[C@@H](C)O)CCNC(=O)[C@H]([C@@H](C)O)NC(=O)[C@H](CCN)NC(=O)[C@H](CCN)NC1=O [Example 9, (R)-4-amino-3- benzylbutanoyl-Thr- Dap-Cyclo[Dab-Dab- DPhe-Leu-Dab-Dab- Thr). Isomer 1] ({GABA(3R-Bn)}-T[Dap][Dab][Dab][dF]L[Dab][Dab]T; lactam 3-C)",MIC K. pneumoniae ATCC 13822,K. pneumoniae ATCC 13822,0.25 µg/mL
same,MIC E. coli ATCC 25922,E. coli ATCC 25922,0.25 µg/mL
same,MIC A. baumannii ATCC BAA-747,[13],0.25 µg/mL
same,Kidney histopathology: signs of degeneration or regeneration,[11],None of the animals
same,"Albumin, urine","[11]; mice, urine 24 h",749 μg/24 h
same,"Cystatin C, urine","[11]; mice, urine 24 h",754 ng/24 h
same,"KIM-1, urine","[11]; mice, urine 24 h",2 ng/24 h
same,HK-2 rel to PMB,HK-2 cells; [16],12.0
same,MIC P. aeruginosa CCUG 59347,P. aeruginosa CCUG 59347; [17],0.5 µg/mL
same,MIC E. coli CA58,E. coli CA58; [17],8 µg/mL
same,MIC K. pneumoniae CA64,K. pneumoniae CA64; [17],64 µg/mL
same,"Drug Level in Kidney (μg/g kidney, 4 h)","[12]; mouse, 17.2 mg/kg sc",159 μg/g kidney
same,Drug level in kidney,"[12]; mouse, 17.2 mg/kg sc, 4 hours",159 µg/g
same,tissue level at time at 4 h,[12]; mouse,159000 ng/g
same,4 hr kidney level/rel. cytotoxicity,[12],13
CC[C@@H]1NC(=O)[C@@H](Cc2ccccc2)NC(=O)[C@H](CCN)NC(=O)[C@@H](NC(=O)[C@H](CN)NC(=O)[C@@H](NC(=O)C[C@H](CN)c2cccc(C(C)C)c2)[C@@H](C)O)CCNC(=O)[C@H]([C@@H](C)O)NC(=O)[C@H](CCN)NC(=O)[C@H](CCN)NC1=O [Example 17] (X3-T[Dap][Dab][Dab][dF][Abu][Dab][Dab]T; lactam 3-C),MIC A. baumannii NCTC 13424,A. baumannii NCTC 13424; [17],0.06 µg/mL
same,MIC A. baumannii ATCC BAA-747,[13],0.06 µg/mL
same,Basophilic tubules (histopathology),[14]; animals per grade,3 normal/2 minimal
same,Tubular degeneration/necrosis (histopathology),[14]; animals per grade,All normal
same,"Albumin, elevation compared with vehicle control",[14]; urine,2.7×
same,"Cystatin C, elevation compared with vehicle control",[14]; urine,1.8×
same,"KIM-1, elevation compared with vehicle control",[14]; urine,4.7×
same,HK-2 rel to PMB,HK-2 cells; [16],29.0
same,MIC P. aeruginosa CCUG 59347,P. aeruginosa CCUG 59347; [17],0.25 µg/mL
same,MIC E. coli CA58,E. coli CA58; [17],8 µg/mL
same,MIC K. pneumoniae CA64,K. pneumoniae CA64; [17],16 µg/mL
same,tissue level at time at 4 h,[12]; mouse,231000 ng/g
"CC(C)C[C@@H]1CNC[C@@H](C(=O)N[C@H](C(=O)N[C@@H](CN)C(=O)N[C@H]2CCNC(=O)[C@H]([C@@H](C)O)NC(=O)[C@H](CCN)NC(=O)[C@H](CCN)NC(=O)[C@H](CC(C)C)NC(=O)[C@@H](CC(C)C)NC(=O)[C@H](CCN)NC2=O)[C@@H](C)O)C1 [Reference Example D77, reference compound] (X17-T[Dap][Dab][Dab][dL]L[Dab][Dab]T; lactam 3-C)",Cytotoxicity (measured IC50 relative to that recorded for Polymyxin B),HK-2 cells,23**
same,Drug Level in Kidney 4 h,[12]; mouse,516 µg/g kidney
same,Drug Level in Kidney 16 h,[12]; mouse,264 µg/g kidney
same,"Renal toxicity (grade from urinary KIM-1, albumin, cystatin C)",[15],++++
Colistin,"Albumin, urine",[3]; [18],"2,353-2,548 μg/24 h"
same,"Cystatin C, urine",[3]; [18],"1,266-1,678 ng/24 h"
same,"KIM-1, urine",[3]; [18],42-89 ng/24 h
